Consider four compounds from article PMC7700423, “Differential Effects of 1α,25-Dihydroxyvitamin D3 on the Expressions and Functions of Hepatic CYP and UGT Enzymes and Its Pharmacokinetic Consequences In Vivo” (Pharmaceutics, 2020).

Series [1] is described as follows: Pharmacokinetics of BUP and HBUP after intravenous BUP in rats. The format is in vivo, rat. The settings on record: for CL renal: plasma and urine; for AUC: n = 6-7; for Vd: read-out: Vss; for Ae0-24h: urine 0-24 h; for Tmax: median (range). The protocol: Male Sprague-Dawley (SD) rats (8 weeks, 260–280 g) were purchased from Nara Biotech Co. (Seoul, Korea). Animals were maintained in cages under controlled conditions under a 12-h dark/light cycle with free access to food and tap water, acclimated for at least five days in the laboratory before experiments, and allocated to a control group or 1,25(OH)2D3-treated group. The 1,25(OH)2D3 dosing solution was prepared by diluting 1,25(OH)2D3 in ethanol with 5 mL of corn oil (2.56 nmol/mL of final concentration). The dosing solution for the control group was prepared but the 1,25(OH)2D3 was omitted. The dosing solutions were administered intraperitoneally to rats at a dose of 1 mL/kg/day (2.56 nmol/kg/day as 1,25(OH)2D3) over four consecutive days. On the fifth day, rats were used for pharmacokinetic study.
In vivo pharmacokinetic animal experiments were accomplished according to the Guide for the Care and Use of Laboratory Animals issued by the National Institute of Health, as described previously. Before starting the animal studies, all experimental protocols were reviewed and approved by the Animal Care and Use Committee of Gachon University (Approval no. GIACUC-R2019020; approved on July 1st, 2019). SD male rats (8–9 weeks, 250–300 g, Nara Biotech Co., Seoul, South Korea) had free access to food and water, acclimatized and maintained in the room under a 12-h light/dark cycle for a week before the study. After pretreatment with 1,25(OH)2D3 for 4 continuous days, the rats in the control and 1,25(OH)2D3 groups were anesthetized with Zoletil® (Vibrac, TX, USA) (10 mg/kg i.m.) and then the femoral vein and artery were cannulated with polyethylene tubing (Clay Adams, NJ, USA) for drug administration and blood sampling, respectively, as described previously. The pharmacokinetic experiment was initiated by drug administration after the rats were recovered from anesthesia. […] Approximately 100 μL of blood was collected via the femoral artery at 0, 1, 5, 15, 30, 60, 120, 180, 240, 360, 480, and 600 min after the drug administration. […] Blood samples were collected at 0, 1, 5, 15, 30, 60, 90, 120, 180, 240, 360, and 480 min later and immediately centrifuged at 14,000× g for 15 min at 4 °C. For compensation of fluid loss, a same volume of saline was intravenously provided after each sample collection. Plasma was then separated from whole blood cells and stored at −20 °C for further analysis. Urine samples were collected 0–4, 4–8, and 8–24 h after drug administration. The collected urine samples were diluted with distilled deionized water (DDW) 20-fold prior to LC-MS/MS analysis. […] The weighted tissues were homogenized on ice by an electric homogenizer following adding 2-fold volume of PBS. The homogenates were stored before LC-MS/MS analysis.
(§1) Moreover, CLNR was calculated to subtract CLR from CL.

Series [2] is described as follows: Pharmacokinetics of TOL and HTOL after intravenous TOL in rats. It counts as in vivo, rat. The following applies: for Tmax: median (range); for Ae0-24h: urine 0-24 h; for Vd: read-out: Vss. On the procedure: (§2) Male Sprague-Dawley (SD) rats (8 weeks, 260–280 g) were purchased from Nara Biotech Co. (Seoul, Korea). […] The dosing solution for the control group was prepared but the 1,25(OH)2D3 was omitted. […] On the fifth day, rats were used for pharmacokinetic study.
(§3) In vivo pharmacokinetic animal experiments were accomplished according to the Guide for the Care and Use of Laboratory Animals issued by the National Institute of Health, as described previously. […] After pretreatment with 1,25(OH)2D3 for 4 continuous days, the rats in the control and 1,25(OH)2D3 groups were anesthetized with Zoletil® (Vibrac, TX, USA) (10 mg/kg i.m.) and then the femoral vein and artery were cannulated with polyethylene tubing (Clay Adams, NJ, USA) for drug administration and blood sampling, respectively, as described previously. The pharmacokinetic experiment was initiated by drug administration after the rats were recovered from anesthesia. […] Approximately 100 μL of blood was collected via the femoral artery at 0, 1, 5, 15, 30, 60, 120, 180, 240, 360, 480, and 600 min after the drug administration. […] For compensation of fluid loss, a same volume of saline was intravenously provided after each sample collection. Plasma was then separated from whole blood cells and stored at −20 °C for further analysis. […] The collected urine samples were diluted with distilled deionized water (DDW) 20-fold prior to LC-MS/MS analysis. […] The weighted tissues were homogenized on ice by an electric homogenizer following adding 2-fold volume of PBS. The homogenates were stored before LC-MS/MS analysis.
as §1

Series [3] is described as follows: Tissue distribution of TOL and HTOL in rats. The following applies: for Tissue to plasma concentration ratio (Kp), Liver: n = 4-6. It counts as in vivo, rat. The protocol:
as §2, §3

Another series concerns the target T1, Cyp2c11 (Rattus norvegicus, UniProt P08683).
T1 sequence (P08683 1-500): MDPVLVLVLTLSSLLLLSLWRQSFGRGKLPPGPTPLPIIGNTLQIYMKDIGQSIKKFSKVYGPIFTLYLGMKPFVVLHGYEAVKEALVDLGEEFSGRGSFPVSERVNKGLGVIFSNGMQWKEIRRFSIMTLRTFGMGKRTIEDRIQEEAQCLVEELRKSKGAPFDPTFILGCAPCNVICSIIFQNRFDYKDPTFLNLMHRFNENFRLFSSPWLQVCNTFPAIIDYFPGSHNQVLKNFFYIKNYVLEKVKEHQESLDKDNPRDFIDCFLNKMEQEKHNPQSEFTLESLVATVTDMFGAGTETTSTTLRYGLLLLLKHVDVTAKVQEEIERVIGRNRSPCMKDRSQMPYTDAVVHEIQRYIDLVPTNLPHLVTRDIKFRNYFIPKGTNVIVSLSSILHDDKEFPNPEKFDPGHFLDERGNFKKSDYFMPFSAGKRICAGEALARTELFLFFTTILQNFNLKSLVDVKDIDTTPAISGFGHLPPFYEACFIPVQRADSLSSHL
The experiment in a line: Tolbutamide 4-hydroxylation (HTOL formation) in rat liver microsomes. The following applies: for CLint: n = 3.

Where [4] appears, read: i.v. 5 mg/kg BUP, 1,25(OH)2D3-treated rats.
Setting [5] is: male, Sprague-Dawley, rat, plasma, iv, 5 mg/kg, i.v. 5 mg/kg BUP, 1,25(OH)2D3-treated rats.
Where [6] appears, read: male, Sprague-Dawley, rat, plasma, iv, 5 mg/kg, i.v. 5 mg/kg BUP, control rats.
Where [7] appears, read: formed metabolite, i.v. 2 mg/kg TOL, 1,25(OH)2D3-treated rats.
The mark [8] stands for this setting: formed metabolite, i.v. 2 mg/kg TOL, control rats.
[9] abbreviates: i.v. 2 mg/kg TOL, 1,25(OH)2D3-treated rats.
[10] abbreviates: 8 h after i.v. 2 mg/kg TOL, 1,25(OH)2D3-treated rats.
Where [11] appears, read: 8 h after i.v. 2 mg/kg TOL, control rats.
[12] abbreviates: male, Sprague-Dawley, rat, plasma, iv, 2 mg/kg, i.v. 2 mg/kg TOL, 1,25(OH)2D3-treated rats.
Where [13] appears, read: male, Sprague-Dawley, rat, plasma, iv, 2 mg/kg, i.v. 2 mg/kg TOL, control rats.

`CC(NC(C)(C)C)C(=O)c1cccc(Cl)c1` (stereo not drawn) [BUP, bupropion]: the “Renal clearance as portion of total clearance” value turned out to be 1.92% in series [1] (1,25(OH)2D3-treated rats) and 0.7% in series [1] (control rats). Moreover, the CLNR in series [1] (setting [4]) is 53.55 ± 13.02 mL/min/kg; in series [1] (i.v. 5 mg/kg BUP, control rats), 93.08 ± 13.73 mL/min/kg. Further, the CL renal in series [1] (male, Sprague-Dawley, rat, iv, 5 mg/kg, i.v. 5 mg/kg BUP, 1,25(OH)2D3-treated rats) was 1.05 ± 0.407 mL/min/kg; in series [1] (male, Sprague-Dawley, rat, iv, 5 mg/kg, i.v. 5 mg/kg BUP, control rats), 0.662 ± 0.635 mL/min/kg. Also, the MRT (commonly a mean duration of stay, worked out from the concentration-time curve) in series [1] (setting [5]) was 1.47 h; in series [1] (setting [6]) it was 1.19 h. Further, the clearance – broadly, a measure of how efficiently the substance is removed, as volume per time – in series [1] (setting [5]) worked out at 54.6 ± 13.4 mL/min/kg; in series [1] (setting [6]), 93.6 ± 14.2 mL/min/kg. Also, the half-life (usually how long it takes for the measured level to halve) was found to be 2.24 ± 0.812 h in series [1] (setting [5]) and 2.59 ± 0.432 h in series [1] (setting [6]). In addition, the AUC (as a rule, the area under the concentration-time curve, a measure of exposure) is 1610 ng·h/mL in series [1] (male, Sprague-Dawley, rat, plasma, iv, 5 mg/kg, i.v. 5 mg/kg BUP, 1,25(OH)2D3-treated rats, read-out: AUC (converted)) and 906 ng·h/mL in series [1] (male, Sprague-Dawley, rat, plasma, iv, 5 mg/kg, i.v. 5 mg/kg BUP, control rats, read-out: AUC (converted)). Moreover, the results for the Vd in series [1] (setting [5]) and in series [1] (setting [6]) were 5.4 ± 1.87 L/kg and 7.82 ± 1.95 L/kg, respectively. Further, the Ae0-24h in series [1] (setting [4]) was 1.791 ± 0.031 % of dose; in series [1] (i.v. 5 mg/kg BUP, control rats) it was 0.719 ± 0.613 % of dose.

In the case of `C[C@H]1NC(C)(C)CO[C@]1(O)c1cccc(Cl)c1` [HBUP, hydroxybupropion], in series [1] (setting [4]), the CLR is 0.077 ± 0.031 mL/min/kg; the Cmax (as a rule, the peak of the concentration-time curve) was determined as 68 ± 21 ng/mL; the t1/2 was determined as 3.283 ± 0.903 h; the AUC worked out at 329.5 ± 151 ng·h/mL. For the same compound, in series [1] (setting [4]), the Tmax is on record as 15 (15–60) min and the Ae0-24h is on record as 0.026 ± 0.008 % of dose. In series [1] (i.v. 5 mg/kg BUP, control rats), this compound registered a CLR of 0.222 ± 0.124 mL/min/kg, a Cmax of 46 ± 32 ng/mL, a t1/2 of 2.673 ± 0.627 h and an area under the curve (AUC) of 76.83 ± 31.63 ng·h/mL. Further, in series [1] (i.v. 5 mg/kg BUP, control rats), the Tmax came to 15 min and the Ae0-24h is listed as 0.015 ± 0.007 % of dose.

With `CCCCNC(=O)NS(=O)(=O)c1ccc(CO)cc1` [HTOL, 4-hydroxytolbutamide], in series [2] (setting [7]), the AUC was determined as 151.9 ± 52.0 µg·min/mL and the CLR was 0.873 ± 0.134 mL/min/kg. In series [2] (setting [8]), the AUC amounted to 100.8 ± 65.2 µg·min/mL and the CLR is 2.713 ± 0.570 mL/min/kg. Further, in series [2] (setting [9]), the Cmax amounted to 207 ± 119 ng/mL, the t1/2 was determined as 10.5 ± 8.193 h, the Tmax was 120 (60–240) min and the Ae0-24h was 5.539 ± 2.305 % of dose. Also, in series [2] (i.v. 2 mg/kg TOL, control rats), the Cmax is 167 ± 67 ng/mL, the t1/2 stood at 8.688 ± 8.317 h, the Tmax is 60 (15–120) min and the Ae0-24h is listed as 9.356 ± 0.471 % of dose. Further, in series [3] (setting [10]), the “Tissue to plasma concentration ratio (Kp), Brain” value amounted to 0.019 ± 0.004; the “Tissue to plasma concentration ratio (Kp), Heart” value came to 0.252 ± 0.036; the “Tissue to plasma concentration ratio (Kp), Kidney” value was 7.768 ± 0.014; the “Tissue to plasma concentration ratio (Kp), Spleen” value was 0.163 ± 0.008. Further, in series [3] (setting [10]), the “Tissue to plasma concentration ratio (Kp), Liver” value is given as 0.657 ± 0.129. Further, in series [3] (setting [11]), the “Tissue to plasma concentration ratio (Kp), Brain” value is on record as 0.020 ± 0.008; the “Tissue to plasma concentration ratio (Kp), Heart” value was 0.175 ± 0.013; the “Tissue to plasma concentration ratio (Kp), Kidney” value is on record as 5.335 ± 1.127; the “Tissue to plasma concentration ratio (Kp), Spleen” value was 0.137 ± 0.010. Further, the “Tissue to plasma concentration ratio (Kp), Liver” value in series [3] (setting [11]) is listed as 0.831 ± 0.152.

On to `CCCCNC(=O)NS(=O)(=O)c1ccc(C)cc1` [TOL, tolbutamide], for which the CLint at Cyp2c11 (RLMs from 1,25(OH)2D3-treated rats) amounted to 0.89 ± 0.18 μL/min/mg protein; on Cyp2c11 (RLMs from control rats), 3.00 ± 0.63 μL/min/mg protein. For the same compound, at Cyp2c11 (RLMs, p = 0.0051), the “CLint lower in 1,25(OH)2D3-treated rats than in controls” value worked out at 70%. In addition, the CLNR was determined as 0.206 ± 0.045 mL/min/kg in series [2] (setting [9]) and 0.189 ± 0.030 mL/min/kg in series [2] (i.v. 2 mg/kg TOL, control rats). The clearance in series [2] (setting [12]) was 0.206 ± 0.045 mL/min/kg; in series [2] (setting [13]), 0.189 ± 0.027 mL/min/kg. For the same compound, the half-life in series [2] (setting [12]) came to 9.4 ± 3.46 h; in series [2] (setting [13]), 7.71 ± 2.56 h. Further, the AUC in series [2] (male, Sprague-Dawley, rat, plasma, iv, 2 mg/kg, i.v. 2 mg/kg TOL, 1,25(OH)2D3-treated rats, n = 9-10, read-out: AUC (converted)) is 10200 µg·min/mL; in series [2] (male, Sprague-Dawley, rat, plasma, iv, 2 mg/kg, i.v. 2 mg/kg TOL, control rats, n = 9-10, read-out: AUC (converted)), 10800 µg·min/mL. Moreover, the Vd worked out at 0.153 ± 0.0195 L/kg in series [2] (setting [12]) and 0.12 ± 0.0156 L/kg in series [2] (setting [13]). Moreover, the MRT in series [2] (setting [13]) is 11 h. Also, the CL renal in series [2] (male, Sprague-Dawley, rat, urine and plasma, iv, 2 mg/kg) was 0.000208 ± 0.000103 mL/min/kg. The Ae0-24h in series [2] (setting [9]) is given as 0.024 ± 0.016 % of dose; in series [2] (i.v. 2 mg/kg TOL, control rats), 0.124 ± 0.059 % of dose.
